Measured values taken from ChEMBL document CHEMBL6182932, “Potent Cyclic Peptide Inhibitors Disrupt the FANCM-RMI Interaction” (J Med Chem, 2025).
Activity calls are given as the source filed them. The rule behind the calls is not given here. Positions of bridges follow the written chain, without caps; N, C: chain ends. Residues, ends and D or L forms follow the SMILES beside them.

Key:
[1] = Displacement of 5-TAMRA-SRDLFSVTFDLGFCSPDSDD-NH2 from recombinant N-terminal 6His/SUMO-tagged RMI1/2 (unknown origin) extracted from Escherichia coli BL21 (DE3) cells incubated for 1 hrs by competitive fluorescence polarization assay; set-up: species or system Homo sapiens; settings: for Activity: Homo sapiens
[2] = species on record: Homo sapiens; assay: Binding affinity to N-terminal 6His/Avi-tagged biotinylated RMI1/2 (unknown origin) extracted from Escherichia coli BL21 (DE3)cells by SPR analysis
[3] = Binding affinity to N-terminal 6His/Avi-tagged biotinylated RMI1/2 (unknown origin) extracted from Escherichia coli BL21 (DE3) cells assessed as dissociation constant by SPR analysis; set-up: species or system Homo sapiens
[4] = Proteolytic stability in Tris-HCl buffer at pH 7.8 assessed as alpha-chymotrypsin (unknown origin) mediated compound degradation at 20 uM incubated for 5 hrs by HPLC analysis; assay type: ADME; settings: human, pH 7.8, 5 h
[5] = tested on: U2OS; assay: Disruption of FANCM-RMI1/2 protein-protein interaction in human U2OS cells assessed as reduction in FANCM pull down at 100 uM incubated for 4 hrs by co-immunoprecipitation based Western blot analysis; assay type: cell-based

| Compound | IC50 [1] [nM] | other results |
| --- | --- | --- |
| Ac-YSILFDKYYAIPC-NH2 | 69 |  |
| CC[C@H](C)[C@H](NC(=O)[C@H](CC(=O)O)NC(=O)[C@@H]1CSCC(=O)N[C@@H](Cc2ccc(O)cc2)C(=O)N[C@@H](Cc2ccc(O)cc2)C(=O)N[C@@H](CCCCN)C(=O)N2CCC[C@H]2C(=O)N[C@@H]([C@@H](C)O)C(=O)N1)C(=O)N[C@H](C(=O)N[C@@H](CC(C)C)C(=O)N[C@@H](Cc1ccccc1)C(=O)N[C@@H](Cc1c[nH]c2ccccc12)C(=O)N[C@@H](CO)C(N)=O)[C@@H](C)CC ({CH2CO}-YYKPTCDIILFWS-NH2; thioether N-6) | > 5000 | Activity [2]: inactive |
| Ac-YSILADKYYSIPC-NH2 | > 5000 |  |
| CC[C@H](C)[C@@H]1NC(=O)[C@H](Cc2ccccc2)NC(=O)[C@H](CO)NC(=O)[C@H]([C@@H](C)CC)NC(=O)[C@H](Cc2ccc(O)cc2)NC(=O)[C@H](CC(=O)O)NC(=O)[C@@H]2CCCN2C(=O)[C@H](CCCCN)NC(=O)[C@H](CC(C)C)NC(=O)CSC[C@@H](C(N)=O)NC(=O)[C@H](Cc2ccc(O)cc2)NC(=O)[C@H](Cc2ccc(O)cc2)NC(=O)[C@H](CO)NC1=O ({CH2CO}-LKPDYISFISYYC-NH2; thioether N-13) |  | Activity [1]: inactive |
| Ac-ASILFDKYYSIPC-NH2 | 700 |  |
| CC[C@H](C)[C@@H]1NC(=O)[C@H](CC(=O)O)NC(=O)CSC[C@@H](C(N)=O)NC(=O)[C@H](CO)NC(=O)[C@H](Cc2ccccc2)NC(=O)[C@H](Cc2ccc(O)cc2)NC(=O)[C@@H]2CCCN2C(=O)[C@H]([C@@H](C)CC)NC(=O)[C@H](Cc2ccc(O)cc2)NC(=O)[C@H](CO)NC(=O)[C@H](CC(C)C)NC(=O)[C@H](Cc2ccc(O)cc2)NC(=O)[C@H](CCCCN)NC1=O ({CH2CO}-DIKYLSYIPYFSC-NH2; thioether N-13) |  | Activity [1]: inactive |
| Ac-YSILFDKAYSIPC-NH2 | 338 |  |
| Ac-YAILFDKYYSIPC-NH2 | 115 |  |
| CC(C)C[C@@H]1NC(=O)[C@H](CCCNC(=N)N)NC(=O)[C@H](Cc2ccc(O)cc2)NC(=O)CSC[C@@H](C(N)=O)NC(=O)[C@@H]2CCCN2C(=O)[C@H](CC(C)C)NC(=O)[C@H](CCCCN)NC(=O)[C@H](Cc2ccc(O)cc2)NC(=O)[C@H]([C@@H](C)O)NC(=O)[C@H](CCC(N)=O)NC(=O)[C@H](Cc2ccccc2)NC(=O)[C@H](Cc2ccccc2)NC(=O)[C@H](Cc2c[nH]c3ccccc23)NC1=O ({CH2CO}-YRLWFFQTYKLPC-NH2; thioether N-13) | 78 | Kd [3]: 10 nM |
| Ac-YSILFDKYYSAPC-NH2 | 999 |  |
| Ac-YSILFDKYYSIAC-NH2 | 114 |  |
| CC[C@H](C)[C@@H]1NC(=O)[C@H](Cc2ccc(O)cc2)NC(=O)CSC[C@@H](C(=O)N[C@@H](CC(C)C)C(=O)N[C@@H](Cc2c[nH]c3ccccc23)C(=O)N[C@@H](CO)C(N)=O)NC(=O)[C@H](Cc2ccccc2)NC(=O)[C@H](CCCCN)NC(=O)[C@H]([C@@H](C)CC)NC(=O)[C@H](C(C)C)NC(=O)[C@H]([C@@H](C)O)NC(=O)[C@H](CC(=O)O)NC(=O)[C@H]([C@@H](C)O)NC(=O)[C@H](Cc2c[nH]c3ccccc23)NC(=O)[C@H](CCCNC(=N)N)NC(=O)[C@H](CC(N)=O)NC(=O)[C@H]([C@@H](C)O)NC1=O ({CH2CO}-YITNRWTDTVIKFCLWS-NH2; thioether N-14) | 104 | Kd [3]: 2 nM |
| Ac-YSIAFDKYYSIPC-NH2 | 496 |  |
| Ac-YSILFDKYASIPC-NH2 | > 5000 |  |
| CC[C@H](C)[C@@H]1NC(=O)[C@H](CO)NC(=O)[C@H](Cc2ccc(O)cc2)NC(=O)CSC[C@@H](C(N)=O)NC(=O)[C@@H]2CCCN2C(=O)[C@H]([C@@H](C)CC)NC(=O)[C@H](CO)NC(=O)[C@H](Cc2ccc(O)cc2)NC(=O)[C@H](Cc2ccc(O)cc2)NC(=O)[C@H](CCCCN)NC(=O)[C@H](CC(=O)O)NC(=O)[C@H](Cc2ccccc2)NC(=O)[C@H](CC(C)C)NC1=O ({CH2CO}-YSILFDKYYSIPC-NH2; thioether N-13) | 54 | Stability [4]: Stable; Activity [5]: Active; Kd [3]: 2.5 nM |
| Ac-YSILFDAYYDSIPC-NH2 | 95 |  |
| Ac-YSILFDKYYSIPC-NH2 | > 5000 |  |
| CC[C@H](C)[C@H](NC(=O)[C@H](CO)NC(=O)[C@H](Cc1ccc(O)cc1)NC(=O)[C@H](Cc1ccc(O)cc1)NC(=O)[C@H](CCCCN)NC(=O)[C@H](CC(=O)O)NC(=O)[C@H](Cc1ccccc1)NC(=O)[C@H](CC(C)C)NC(=O)[C@H](C)NC(=O)[C@H](CO)NC(=O)[C@H](Cc1ccc(O)cc1)NC(C)=O)C(=O)N1CCC[C@H]1C(=O)N[C@H](CS)C(N)=O | 4500 |  |
| Ac-YSILFAKYYSIPC-NH2 | 440 |  |
